Seven compounds from patent US8648191B2, “Cyclohexyloxy substituted heterocycles, pharmaceutical compositions containing these compounds and processes for preparing them” (Boehringer Ingelheim International GmbH, priority 2008, dated 2014) can be followed below.

T1 sequence (P00533 25-1210): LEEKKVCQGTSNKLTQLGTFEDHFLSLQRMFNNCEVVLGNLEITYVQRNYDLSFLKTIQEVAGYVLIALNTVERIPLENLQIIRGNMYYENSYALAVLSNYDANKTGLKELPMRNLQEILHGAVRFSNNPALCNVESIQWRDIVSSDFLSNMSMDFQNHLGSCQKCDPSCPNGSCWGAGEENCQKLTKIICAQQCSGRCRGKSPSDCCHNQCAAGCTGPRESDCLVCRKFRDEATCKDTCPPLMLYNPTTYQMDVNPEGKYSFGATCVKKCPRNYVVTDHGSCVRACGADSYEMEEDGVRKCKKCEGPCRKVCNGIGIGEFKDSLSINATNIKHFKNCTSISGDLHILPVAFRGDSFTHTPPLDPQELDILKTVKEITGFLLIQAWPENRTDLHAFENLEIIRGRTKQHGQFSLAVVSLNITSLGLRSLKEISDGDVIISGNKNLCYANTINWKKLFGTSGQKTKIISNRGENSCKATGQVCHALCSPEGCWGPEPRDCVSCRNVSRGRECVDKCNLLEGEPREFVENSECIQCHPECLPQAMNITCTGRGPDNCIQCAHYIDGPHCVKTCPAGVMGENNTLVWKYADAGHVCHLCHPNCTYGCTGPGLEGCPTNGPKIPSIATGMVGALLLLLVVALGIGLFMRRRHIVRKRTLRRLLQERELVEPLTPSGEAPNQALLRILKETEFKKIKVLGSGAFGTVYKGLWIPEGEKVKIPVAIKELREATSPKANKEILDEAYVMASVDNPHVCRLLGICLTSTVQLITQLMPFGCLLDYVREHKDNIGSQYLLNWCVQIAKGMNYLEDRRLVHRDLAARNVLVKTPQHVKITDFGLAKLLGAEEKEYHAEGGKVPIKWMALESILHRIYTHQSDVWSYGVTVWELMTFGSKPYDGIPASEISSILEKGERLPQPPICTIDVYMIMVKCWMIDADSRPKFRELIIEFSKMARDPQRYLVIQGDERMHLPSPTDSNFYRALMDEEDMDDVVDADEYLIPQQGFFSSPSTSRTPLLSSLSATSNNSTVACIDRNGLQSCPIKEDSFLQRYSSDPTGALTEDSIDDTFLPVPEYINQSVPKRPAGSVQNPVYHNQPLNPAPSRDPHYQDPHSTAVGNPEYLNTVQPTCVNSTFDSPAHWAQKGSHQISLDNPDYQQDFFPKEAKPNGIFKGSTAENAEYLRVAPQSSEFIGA

The assay has as its target T1, human EGF-R (Homo sapiens, UniProt P00533).
T1 construct: expressed in transfected cells
The assay is described as follows: Inhibition of the EGFR-dependent proliferation of a murine haematopoietic cell line expressing human EGF-R, stimulated with EGF. In kind it is cell-based. The settings on record: 20 ng/ml human EGF, 48 hours at 37° C., Cell Titer 96 AQueous assay. The procedure: A murine haematopoietic cell line is genetically modified so as to express functional human EGF-R. The proliferation of this cell line can therefore be stimulated by EGF.
The test is carried out as follows:
The cells are cultivated in RPMI/1640 medium. The proliferation is stimulated with 20 ng/ml of human EGF (Promega). To investigate the inhibitory activity of the compounds according to the invention these compounds are dissolved in 100% dimethylsulphoxide (DMSO) and added to the cultures in various dilutions, the maximum DMSO concentration being 1%. The cultures are incubated for 48 hours at 37° C.
In order to determine the inhibitory activity of the compounds according to the invention the relative cell number is measured in O.D. Units using the Cell Titer 96™ AQueous Non-Radioactive Cell Proliferation Assay (Promega). The relative cell number is calculated as a percentage of the control and the concentration of active substance which inhibits the proliferation of the cells by 50% (IC50) is derived therefrom.
As to `COc1cc2ncnc(Nc3cccc(Cl)c3F)c2cc1OC1CCC([C@H]2C(=O)N(C)CCN2C)CC1` (mixture of isomers) [1(3), cis/trans-(S)-3-{4-[4-(3-chloro-2-fluoro-phenylamino)-7-methoxy-quinazolin-6-yloxy]-cyclohexyl}-1,4-dimethyl-piperazin-2-one], inhibition was half-maximal at 1 nM (IC50).
For `COc1cc2ncnc(Nc3cccc(Cl)c3F)c2cc1OC1CCC([C@H]2C(=O)NCCN2C)CC1` (mixture of isomers) [Example 1, cis/trans-(S)-3-{-4-[4-(3-chloro-2-fluoro-phenylamino)-7-methoxy-quinazolin-6-yloxy]-cyclohexyl}-4-methyl-piperazin-2-one], half-maximal inhibition (IC50) was put at 1 nM.
As to `COc1cc2ncnc(Nc3cccc(Cl)c3F)c2cc1O[C@H]1CC[C@@H]([C@@H]2NCCNC2=O)CC1` [1(1a), cis-(S)-3-{4-[4-(3-chloro-2-fluoro-phenylamino)-7-methoxy-quinazolin-6-yloxy]-cyclohexyl}-piperazin-2-one], the IC50 (commonly the concentration at which inhibition is half-maximal) was determined as 10 nM.
In turn, `COc1cc2ncnc(Nc3cccc(Cl)c3F)c2cc1O[C@H]1CC[C@H]([C@@H]2NCCNC2=O)CC1` [1(1b), trans-(S)-3-{4-[4-(3-chloro-2-fluoro-phenylamino)-7-methoxy-quinazolin-6-yloxy]-cyclohexyl}-piperazin-2-one] gave an IC50 of 1.4 nM.
In turn, `COc1cc2ncnc(Nc3cccc(Cl)c3F)c2cc1O[C@H]1CC[C@H]([C@@H]2NCCN(C)C2=O)CC1` [1(2), trans-(S)-3-{4-[4-(3-chloro-2-fluoro-phenylamino)-7-methoxy-quinazolin-6-yloxy]-cyclohexyl}-1-methyl-piperazin-2-one] registered an IC50 of 1 nM.
In the case of `COc1cc2ncnc(Nc3cccc(Cl)c3F)c2cc1O[C@H]1CC[C@@H]([C@H]2NCCNC2=O)CC1` [1(4), cis-(R)-3-{4-[4-(3-chloro-2-fluoro-phenylamino)-7-methoxy-quinazolin-6-yloxy]-cyclohexyl}-piperazin-2-one] it was 12.5 nM; in that of `COc1cc2ncnc(Nc3cccc(Cl)c3F)c2cc1O[C@H]1CC[C@H]([C@H]2NCCNC2=O)CC1` [1(5), trans-(R)-3-{4-[4-(3-chloro-2-fluoro-phenylamino)-7-methoxy-quinazolin-6-yloxy]-cyclohexyl}-piperazin-2-one], 1.6 nM.
